The assay concerns Detroit 562 cells. Briefly: In vitro killing assay of ADC on Detroit562 cells (CCK-8). In kind it is cell-based. The settings on record: Detroit 562, 5 days, 3-fold dilutions from 300 nM, CCK-8, FIG. 19. As to the method:
Experimental Example 4: In Vitro Killing Assay of ADC on Detroit562 Cells
Detroit 562 cells (purchased from Nan Jing cobioer biosciences Co., Ltd.) were cultured so that a cell density reached to 80%. The cells were collected, plated in a 96-well plate, and the cell density was adjusted to 2-5×10^4/ml. Each well was plated with 100 μL of cells, and the ADC molecules were serially diluted 3 times with an initial concentration of 300 nM. After the dilution was completed, the ADC molecules were added to the cell culture medium and cultured for 5 days, during which the apoptosis of the cells was observed regularly. After 5 days, 15 μL of the CCK-8 kit stock solution was added to the 96-well plate and reacted in an incubator of 37° C. for 0.5-2 h. An absorbance at 450 nm was measured, and cell survival curves were drawn based on OD (optical density) readings and ADC dilution gradients.
Human IgG-DXD prepared in Comparative Example 4, Human IgG-LP1 prepared in Comparative Example 5, Human IgG-LP2 prepared in Comparative Example 7, Hu1H2-2-LP1 prepared in Example 6, Hu1H2-2-LP2 prepared in Example 8, and Hu1H2-2-DXD prepared in Comparative Example 9 were selected as ADC molecules. Wherein Human IgG was used as the isotype control of Hu1H2-2 antibody, and DXD was used as positive drug.

1 molecule from patent US20260166169A1, “ANTIBODY-DRUG CONJUGATE, PREPARATION METHOD AND USE THEREOF” (priority 2023, published 2026) can be followed below.

As for `CC[C@@]1(O)C(=O)OCc2c1cc1n(c2=O)Cc2c-1nc1cc(F)c(C)c3c1c2[C@@H](NC(=O)OCc1ccc(NC(=O)CNC(=O)[C@H](Cc2ccccc2)NC(=O)CNC(=O)CNC(=O)CCCCCN2C(=O)C=CC2=O)cc1CN(C)C(=O)CN(C)C(=O)CN(C)C(=O)CN(C)C(=O)CN(C)C(=O)CN(C)C(=O)CN(C)C(=O)CN(C)C(=O)CN(C)C(=O)CN(C)C(=O)CN(C)C(C)=O)CC3` [LP-2], the “in vitro killing effect (cell survival curve)” value was “more excellent killing effects in vitro on Detriot562”.
